Test results reported in patent US9833497B2, “Human originated EGF domain proteins and use of the same” (CHENGDU SOURCEBIO LIMITED-LIABILITY COMPANY, priority 2013, dated 2017).

Columns and labels:
Format in all cases: cell-based
Enterobacter cloacae = test: MIC against Gram-negative bacteria: Enterobacter cloacae; conditions: 5×10^5 CFU/mL; for MIC against E. cloacae: Enterobacter cloacae
Outline: (§1)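 MIC, the lowest recombinant protein concentration giving no bacterial growth, found by two-fold serial dilution of human EGF-domain proteins in triplicate. Inoculum 5×10^5 CFU/mL in LB from cultures at McFarland 0.5; plates incubated at 37° C, 175 rpm shaking.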

E. coli BL21 = test: MIC against Gram-negative bacteria: E. coli BL21; conditions: 5×10^5 CFU/mL
Outline: as §1

E. coli DH5α = test: Antibacterial activity: MIC and growth curve against E. coli DH5α in 96-well plate; conditions: minimal inhibitory concentration against E. coli DH5α; 96-well plate, 5×10^5 CFU/mL, 37° C., judged after 8 h
Outline: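 Log-phase bacteria (OD600 ~0.5) resuspended in LB at 5×10^5 CFU/mL, exposed to recombinant protein at 50, 25, 12.5 μg/mL final in triplicate, 37 °C shaking at 175 rpm. OD600 read every 30 min; MIC is lowest concentration showing no growth.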

Serratia marcescens = test: MIC against Gram-negative bacteria: Serratia marcescens; conditions: 5×10^5 CFU/mL; for MIC against S. marcescens: Serratia marcescens
Outline: as §1

Pseudomonas aeruginosa = test: MIC against Gram-negative bacteria: Pseudomonas aeruginosa; conditions: 5×10^5 CFU/mL; for MIC against P. aeruginosa: Pseudomonas aeruginosa
Outline: as §1

Proteus mirabilis = test: MIC against Gram-negative bacteria: Proteus mirabilis; conditions: 5×10^5 CFU/mL; for MIC against P. mirabilis: Proteus mirabilis
Outline: as §1

Proteus vulgaris = test: MIC against Gram-negative bacteria: Proteus vulgaris; conditions: 5×10^5 CFU/mL; for MIC against P. vulgaris: Proteus vulgaris
Outline: as §1

Klebsiella pneumonia = test: MIC against Gram-negative bacteria: Klebsiella pneumonia; conditions: 5×10^5 CFU/mL; for MIC against K. pneumonia: Klebsiella pneumonia
Outline: as §1

Citrobacter diversus = test: MIC against Gram-negative bacteria: Citrobacter diversus; conditions: 5×10^5 CFU/mL; for MIC against C. diversus: Citrobacter diversus
Outline: as §1

Moraxella catarrhalis = test: MIC against Gram-negative bacteria: Moraxella catarrhalis; conditions: 5×10^5 CFU/mL; for MIC against M. catarrhalis: Moraxella catarrhalis
Outline: as §1

Aeromonas hydrophila = test: MIC against Gram-negative bacteria: Aeromonas hydrophila; conditions: 5×10^5 CFU/mL; for MIC against A. hydrophila: Aeromonas hydrophila
Outline: as §1

[1] = 10 h cultivation at 37° C., two-fold serial dilution

## PRT779 (VSPCSRGYCDHGGQCQHLPSGPRCSCVSFSIYTAWGEHCE; listed as Homo sapiens)
Enterobacter cloacae; 10 h cultivation at 37° C.
  MIC (μg/mL) E. cloacae: 50 µg/mL
E. coli BL21; 10 h cultivation at 37° C.
  MIC (μg/mL) E. coli BL21: 12.5 µg/mL
E. coli DH5α
  MIC: 12.5 µg/mL
Serratia marcescens; 10 h cultivation at 37° C.
  MIC (μg/mL) S. marcescens: 50 µg/mL
Pseudomonas aeruginosa; 10 h cultivation at 37° C.
  MIC (μg/mL) P. aeruginosa: 50 µg/mL
Proteus mirabilis; 10 h cultivation at 37° C.
  MIC (μg/mL) P. mirabilis: 50 µg/mL
Proteus vulgaris; 10 h cultivation at 37° C.
  MIC (μg/mL) P. vulgaris: 12.5 µg/mL
Klebsiella pneumonia; 10 h cultivation at 37° C.
  MIC (μg/mL) K. pneumonia: 12.5 µg/mL
Citrobacter diversus; 10 h cultivation at 37° C.
  MIC (μg/mL) C. diversus: 50 µg/mL
Moraxella catarrhalis; 10 h cultivation at 37° C.
  MIC (μg/mL) M. catarrhalis: 12.5 µg/mL
Aeromonas hydrophila; 10 h cultivation at 37° C.
  MIC (μg/mL) A. hydrophila: 12.5 µg/mL

## PRT1329 (LPAVCTPPCSAHATCKENNTCECNLDYEGDGITCT; listed as Homo sapiens)
Enterobacter cloacae; 96-well plate, 37° C., 10 h
  MIC against E. cloacae: 12.5 µg/mL
E. coli BL21; 96-well plate, 37° C., 10 h
  MIC against E. coli BL21: 50 µg/mL
E. coli DH5α
  MIC: 12.5 µg/mL
Serratia marcescens; 96-well plate, 37° C., 10 h
  MIC against S. marcescens: 25 µg/mL
Pseudomonas aeruginosa; 96-well plate, 37° C., 10 h
  MIC against P. aeruginosa: 12.5 µg/mL
Proteus mirabilis; 96-well plate, 37° C., 10 h
  MIC against P. mirabilis: 25 µg/mL
Proteus vulgaris; 96-well plate, 37° C., 10 h
  MIC against P. vulgaris: 25 µg/mL
Klebsiella pneumonia; 96-well plate, 37° C., 10 h
  MIC against K. pneumonia: 50 µg/mL
Citrobacter diversus; 96-well plate, 37° C., 10 h
  MIC against C. diversus: 25 µg/mL
Moraxella catarrhalis; 96-well plate, 37° C., 10 h
  MIC against M. catarrhalis: 12.5 µg/mL
Aeromonas hydrophila; 96-well plate, 37° C., 10 h
  MIC against A. hydrophila: 50 µg/mL

## PRT772 (TIVSTESLETLAPGLCQEGQIWNGKQCVCPQGYVGYQCL; listed as Homo sapiens)
Enterobacter cloacae; 10 h cultivation at 37° C.
  MIC (μg/mL) E. cloacae: 12.5 µg/mL
E. coli BL21; 10 h cultivation at 37° C.
  MIC (μg/mL) E. coli BL21: 50 µg/mL
E. coli DH5α
  MIC: 12.5 µg/mL
Serratia marcescens; 10 h cultivation at 37° C.
  MIC (μg/mL) S. marcescens: 12.5 µg/mL
Pseudomonas aeruginosa; 10 h cultivation at 37° C.
  MIC (μg/mL) P. aeruginosa: 12.5 µg/mL
Proteus mirabilis; 10 h cultivation at 37° C.
  MIC (μg/mL) P. mirabilis: 50 µg/mL
Proteus vulgaris; 10 h cultivation at 37° C.
  MIC (μg/mL) P. vulgaris: 25 µg/mL
Klebsiella pneumonia; 10 h cultivation at 37° C.
  MIC (μg/mL) K. pneumonia: 50 µg/mL
Citrobacter diversus; 10 h cultivation at 37° C.
  MIC (μg/mL) C. diversus: 12.5 µg/mL
Moraxella catarrhalis; 10 h cultivation at 37° C.
  MIC (μg/mL) M. catarrhalis: 25 µg/mL
Aeromonas hydrophila; 10 h cultivation at 37° C.
  MIC (μg/mL) A. hydrophila: 50 µg/mL

## PRT1205 (EHDECITNQHNCDENALCFNTVGGHNCVCKPGYTGNGTTCK; listed as Homo sapiens)
Enterobacter cloacae; 96-well plate, 37° C., 10 h
  MIC against E. cloacae: 12.5 µg/mL
E. coli BL21; 96-well plate, 37° C., 10 h
  MIC against E. coli BL21: 12.5 µg/mL
E. coli DH5α
  MIC: 25 µg/mL
Serratia marcescens; 96-well plate, 37° C., 10 h
  MIC against S. marcescens: 25 µg/mL
Pseudomonas aeruginosa; 96-well plate, 37° C., 10 h
  MIC against P. aeruginosa: 50 µg/mL
Proteus mirabilis; 96-well plate, 37° C., 10 h
  MIC against P. mirabilis: 50 µg/mL
Proteus vulgaris; 96-well plate, 37° C., 10 h
  MIC against P. vulgaris: 12.5 µg/mL
Klebsiella pneumonia; 96-well plate, 37° C., 10 h
  MIC against K. pneumonia: 25 µg/mL
Citrobacter diversus; 96-well plate, 37° C., 10 h
  MIC against C. diversus: 12.5 µg/mL
Moraxella catarrhalis; 96-well plate, 37° C., 10 h
  MIC against M. catarrhalis: 25 µg/mL
Aeromonas hydrophila; 96-well plate, 37° C., 10 h
  MIC against A. hydrophila: 50 µg/mL

## PRT182 (QQPICLSGCHEQNGYCSKPAECLCRPGWQGRLCN; listed as Homo sapiens)
Enterobacter cloacae; 10 h cultivation at 37° C.
  MIC (μg/mL) E. cloacae: 25 µg/mL
E. coli BL21; 10 h cultivation at 37° C.
  MIC (μg/mL) E. coli BL21: 12.5 µg/mL
E. coli DH5α
  MIC: 12.5 µg/mL
Serratia marcescens; 10 h cultivation at 37° C.
  MIC (μg/mL) S. marcescens: 25 µg/mL
Pseudomonas aeruginosa; 10 h cultivation at 37° C.
  MIC (μg/mL) P. aeruginosa: 25 µg/mL
Proteus mirabilis; 10 h cultivation at 37° C.
  MIC (μg/mL) P. mirabilis: 25 µg/mL
Proteus vulgaris; 10 h cultivation at 37° C.
  MIC (μg/mL) P. vulgaris: 12.5 µg/mL
Klebsiella pneumonia; 10 h cultivation at 37° C.
  MIC (μg/mL) K. pneumonia: 12.5 µg/mL
Citrobacter diversus; 10 h cultivation at 37° C.
  MIC (μg/mL) C. diversus: 25 µg/mL
Moraxella catarrhalis; 10 h cultivation at 37° C.
  MIC (μg/mL) M. catarrhalis: 100 µg/mL
Aeromonas hydrophila; 10 h cultivation at 37° C.
  MIC (μg/mL) A. hydrophila: 12.5 µg/mL

## PRT1127 (KDGPCVINGSPCQHGGTCVDDEGRASHASCLCPPGFSGNFCE; listed as Homo sapiens)
Enterobacter cloacae; [1]
  MIC E. cloacae: 12.5 µg/mL
E. coli BL21; [1]
  MIC E. coli BL21: 50 µg/mL
E. coli DH5α
  MIC: 12.5 µg/mL
Serratia marcescens; [1]
  MIC S. marcescens: 25 µg/mL
Pseudomonas aeruginosa; [1]
  MIC P. aeruginosa: 12.5 µg/mL
Proteus mirabilis; [1]
  MIC P. mirabilis: 25 µg/mL
Proteus vulgaris; [1]
  MIC P. vulgaris: 50 µg/mL
Klebsiella pneumonia; [1]
  MIC K. pneumonia: 50 µg/mL
Citrobacter diversus; [1]
  MIC C. diversus: 25 µg/mL
Moraxella catarrhalis; [1]
  MIC M. catarrhalis: 12.5 µg/mL
Aeromonas hydrophila; [1]
  MIC A. hydrophila: 50 µg/mL

## PRT1479 (AKNECHPERTDGCQHFCLPGQESYTCSCAQGYRLGEDHKQCV; listed as Homo sapiens)
Enterobacter cloacae; 10 h cultivation at 37° C.
  MIC against E. cloacae: 50 µg/mL
E. coli BL21; 10 h cultivation at 37° C.
  MIC against E. coli BL21: 12.5 µg/mL
E. coli DH5α
  MIC: 50 µg/mL
Serratia marcescens; 10 h cultivation at 37° C.
  MIC against S. marcescens: 12.5 µg/mL
Pseudomonas aeruginosa; 10 h cultivation at 37° C.
  MIC against P. aeruginosa: 50 µg/mL
Proteus mirabilis; 10 h cultivation at 37° C.
  MIC against P. mirabilis: 25 µg/mL
Proteus vulgaris; 10 h cultivation at 37° C.
  MIC against P. vulgaris: 50 µg/mL
Klebsiella pneumonia; 10 h cultivation at 37° C.
  MIC against K. pneumonia: 100 µg/mL
Citrobacter diversus; 10 h cultivation at 37° C.
  MIC against C. diversus: 50 µg/mL
Moraxella catarrhalis; 10 h cultivation at 37° C.
  MIC against M. catarrhalis: 12.5 µg/mL
Aeromonas hydrophila; 10 h cultivation at 37° C.
  MIC against A. hydrophila: 12.5 µg/mL
